Results taken from ChEMBL document CHEMBL1201862, “PubChem BioAssay data set” (2004).
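All cell lines were grown in 96-well plates and treated with compound for 48 hours. GI50 marks 50% less growth.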 Active and inactive are the calls of the source. Rule as the data show it: active = GI50 up to about 1.1 µM and inactive = higher.

Assays:
Test in all cases: DTP human tumour cell line panel, 48 h
BT-549 = system: BT-549
HCT-15 = system: HCT-15
HOP-62 = system: HOP-62
HOP-92 = system: HOP-92
LOX IMVI = system: LOX IMVI
M19-MEL = system: M19-MEL
MCF7 = system: MCF7
MDA-MB-231 = system: MDA-MB-231
MDA-MB-435 = system: MDA-MB-435
MOLT-4 = system: MOLT-4
NCI-H460 = system: NCI-H460
NCI-H522 = system: NCI-H522
PC-3 = system: PC-3
SF-539 = system: SF-539
SK-MEL-2 = system: SK-MEL-2
SN12C = system: SN12C
SNB-19 = system: SNB-19
SW-620 = system: SW-620
TK-10 = system: TK-10
U-251 = system: U-251

SMILES | GI50 (BT-549) | GI50 (HCT-15) [µM] | GI50 (HOP-62) | GI50 (HOP-92) | GI50 (LOX IMVI) | GI50 (M19-MEL) | GI50 (MCF7) | GI50 (MDA-MB-231) | GI50 (MDA-MB-435) | GI50 (MOLT-4) | GI50 (NCI-H460) | GI50 (NCI-H522) | GI50 (PC-3) | GI50 (SF-539) | GI50 (SK-MEL-2) | GI50 (SN12C) | GI50 (SNB-19) | GI50 (SW-620) | GI50 (TK-10) | GI50 (U-251)
O=C(/C=C/c1ccc(OCC(=O)N2CCN(c3ccccc3)CC2)cc1)c1ccc(Cl)cc1 | 43.4 µM (inactive) | > 100 | 21.7 µM (inactive) | 13.3 µM (inactive) | > 100 µM (inactive) | > 100 µM (inactive) | > 100 µM (inactive) | 25.5 µM (inactive) | > 100 µM (inactive) | > 100 µM (inactive) | > 94.2 µM (inactive) | 49.3 µM (inactive) | > 91.8 µM (inactive) | 19 µM (inactive) | 36.5 µM (inactive) | 89.5 µM (inactive) | 18.6 µM (inactive) | > 100 µM (inactive) | 31.6 µM (inactive) | 15.7 µM (inactive)
NC(=O)C(=O)N/N=C1\C(=O)N(c2ccc(Cl)cc2Cl)C(=O)C1C(=O)Nc1ccc(Cl)cc1Cl (stereo not drawn) |  | > 100 | > 100 µM (inactive) | > 100 µM (inactive) | > 100 µM (inactive) | > 100 µM (inactive) |  |  |  | > 100 µM (inactive) | > 100 µM (inactive) | > 100 µM (inactive) |  | > 100 µM (inactive) | > 100 µM (inactive) | > 100 µM (inactive) | > 100 µM (inactive) | > 100 µM (inactive) | > 100 µM (inactive) | > 100 µM (inactive)
CCOC(=O)[C-]([N+]#N)[Si](C)(C)C |  | 27.5 | 20.5 µM (inactive) | > 100 µM (inactive) | 85.9 µM (inactive) | > 100 µM (inactive) |  |  |  |  | > 100 µM (inactive) |  |  | > 100 µM (inactive) | > 100 µM (inactive) | > 100 µM (inactive) | > 100 µM (inactive) | > 100 µM (inactive) | > 100 µM (inactive) | 24.2 µM (inactive)
C=C(C)C1CC=C(C(=O)O)CC1 (stereo not drawn) |  | 871 | 995 µM (inactive) | 1440 µM (inactive) | 1220 µM (inactive) | 1160 µM (inactive) |  |  |  | 2330 µM (inactive) | 1360 µM (inactive) | 887 µM (inactive) |  | 1070 µM (inactive) | 1170 µM (inactive) | 1570 µM (inactive) | 1190 µM (inactive) | 1740 µM (inactive) | 1580 µM (inactive) | 1060 µM (inactive)
Cc1ccc(Sc2ccc(C)cc2[N+](=O)[O-])c([N+](=O)[O-])c1 |  | > 100 | > 100 µM (inactive) | > 100 µM (inactive) | > 100 µM (inactive) | > 100 µM (inactive) |  |  |  | > 100 µM (inactive) | > 100 µM (inactive) | > 100 µM (inactive) |  | > 100 µM (inactive) | > 100 µM (inactive) | > 100 µM (inactive) | > 100 µM (inactive) | > 100 µM (inactive) | > 100 µM (inactive) | > 100 µM (inactive)
Cc1cc(=O)n(-c2ccccc2)c(=O)o1 |  | > 100 | > 100 µM (inactive) | > 100 µM (inactive) | 32.8 µM (inactive) | > 100 µM (inactive) |  |  |  | > 100 µM (inactive) | > 100 µM (inactive) | 62.7 µM (inactive) |  | > 100 µM (inactive) | > 100 µM (inactive) | > 100 µM (inactive) | > 100 µM (inactive) | > 100 µM (inactive) | > 100 µM (inactive) | > 100 µM (inactive)
CC(=O)OCC1OC(N2C(=O)C(=O)c3ccccc32)C(OC(C)=O)C(OC(C)=O)C1OC(C)=O (stereo not drawn) |  | > 100 | > 100 µM (inactive) | > 100 µM (inactive) | > 100 µM (inactive) | 91.2 µM (inactive) |  |  |  | > 100 µM (inactive) | > 100 µM (inactive) | > 100 µM (inactive) |  | > 100 µM (inactive) | > 100 µM (inactive) | > 100 µM (inactive) | > 100 µM (inactive) | > 100 µM (inactive) | > 100 µM (inactive) | > 100 µM (inactive)
CN1C/C(=C\c2ccccc2)C2=NN(C(N)=S)[C@H](c3ccccc3)[C@@H]2C1 |  | > 100 | > 100 µM (inactive) | 75.3 µM (inactive) | > 100 µM (inactive) | 55.2 µM (inactive) |  |  |  | 89.1 µM (inactive) | 50.5 µM (inactive) | 40 µM (inactive) |  | > 100 µM (inactive) | > 100 µM (inactive) | > 100 µM (inactive) | > 100 µM (inactive) | > 100 µM (inactive) | > 100 µM (inactive) | > 100 µM (inactive)
O=C1C2C3C=C4c5ccccc5N(c5ccccc5)C4(C2C(=O)N1c1ccc(Cl)cc1)[C@H]1C(=O)N(c2ccc(Cl)cc2)C(=O)[C@@H]31 (stereo partly drawn) |  | > 100 | > 100 µM (inactive) | > 100 µM (inactive) | > 100 µM (inactive) | > 100 µM (inactive) |  |  |  | > 100 µM (inactive) | > 100 µM (inactive) | 82.6 µM (inactive) |  | > 100 µM (inactive) | > 100 µM (inactive) | > 100 µM (inactive) | > 100 µM (inactive) | > 100 µM (inactive) | > 100 µM (inactive) | > 100 µM (inactive)
